Where two headings read alike, the source gives them in different places.
Tests used:
[1] = system: proximal tubular cells; conditions: for cell death: wild type proximal tubular cells, 24 hours
Description: To determine if CHOP played a role in ER stress induced renal cell death, primary proximal tubular cells were isolated from 2 month-old CHOP^−/− and wild type mice using a method described by Sheridan et al. (Am J Physiol 1993, 265:F342-350). Briefly, kidneys were perfused with a phosphate buffer solution and dynabead M-450 (5×10^5 beads/ml, Invitrogen, LA, CA). Cortices were then cut to small pieces and incubated with 0.1% collagenase and 100 u/ml DNase at 37° C. for 40 minutes. After pressing tissues through a 100 μm cell strainer (BD Biosciences, Bedford, Mass.) with a syringe plunger, glomeruli were removed by a magnetic concentrator. The remaining tissues were collected with a 40 μm cell strainer, washed and cultured with medium containing DMEM/F12 (1:1), 5 μg/ml transferrin, 5 μg/ml insulin, 50 nM hydrocortisone, 5% FBS, 100 u/ml each of penicillin and streptomycin. […] […] 24 hours later, cells were gently washed and stained with trypan blue, the number of live cells from each well was counted.

[2] = system: MCP-1, RANTES, CXCL1, MIP-2, ICAM-1, and iNOS mRNA; assay: TNFα induced pro-inflammatory gene expression in proximal tubular cell line, real-time PCR; assay type: cell-based, mouse; conditions: TNFα 10 ng/ml, 4 hours, control defined as 1
Description: A proximal tubular cell line obtained from mice transgenic for SV40 T antigen was grown in DMEM containing 10% FBS. For the measurement of TNFα-stimulated gene expression, 1×10^5 proximal tubular cells were transferred to each well of a 6-well-plate. After placing the cells in 0.1% FBS medium for 24 hours, 10 ng/ml of TNFα was added to test wells. Total RNA was isolated from all wells 4 hours later. MCP-1, RANTES, CXCL1, MIP-2, ICAM-1, and iNOS mRNA levels were determined by real-time PCR as described above and corrected by β-actin mRNA levels. TNFα stimulated MCP-1 and RANTES production and release into the medium was measured in TNFα (10 ng/ml) treated and control cells at 24 hours. The amount of MCP-1 or RANTES in the medium was measured by ELISA (Invitrogen Corporation (Carlsband, Calif.).
To determine the effect of PPS on TNFα induced upregulation of proinflammatory genes, proximal tubular cells were pre-treated with PPS (200 μg/ml) for 1 hour before the addition of TNFα (10 ng/ml). MCP-1, RANTES, CXCL1, MIP-2, ICAM-1, and iNOS mRNA levels were determined 4 hours later by real-time PCR. MCP-1 and RANTES production was also measured.

[3] = system: podocytes; assay: Albumin permeability of podocyte monolayers (FITC-labeled BSA flux); assay type: cell-based; conditions: 2 hours after TNFα treatment (20 ng/ml)
Description: 1×10^5 podocytes were seeded onto collagen-coated transwell filters ([…] pore-size, Corning, N.Y., N.Y.) placed in the top chamber of each well of a 24-well plate. After cells reached confluence, some wells of cells were treated with TNFα (20 ng/ml), PPS (400 μg/ml), or PPS plus TNFα in 2% FBS medium for 8 hours. Then the medium from both the top and bottom chamber was completely removed, cells were washed twice with PBS and the top chamber was refilled with 0.2 ml 2% FBS medium supplemented with 0.5 mg/ml FITC-labeled BSA (Sigma Aldrich, St Louis, […].), while the bottom chamber was refilled with 0.6 ml 2% FBS medium supplemented with 0.5 mg/ml unlabeled BSA. At different time points, 100 μl aliquots were collected from the bottom chamber and fluorescence was measured by a fluorescence spectrophotometer (485 nm excitation, 535 nm emission). The concentration of FITC-BSA passing through the monolayer was determined by reference to a set of standard dilutions of FITC-BSA. The value of albumin flux through untreated monolayer was arbitrarily defined as 100%.

[4] = system: MMP-2; assay: Zymography of U937 cell supernatants, MMP-2; assay type: cell-based, human; conditions: U937 cells, heparin 100 μg/ml
Description: Human pro-monocytic U937 cells were obtained from American Type Culture Collection (Manassas, Va.) and grown in RPMI medium supplemented with 10% FBS. U937 cells were plated in six-well plates at a density of 5×10^6 cells/ml. The cells were then stimulated with 10 ng/ml TNF-α, in the presence or absence of either increasing concentrations of PPS (10-100 μg/ml) or heparin (100 μg/ml), and incubated at 37° C. for 3 hours. Following stimulation, cells were placed in 0.1% BSA-serum-free medium for 16-18 hours. The media was then collected, centrifuged, and supernatants were stored at −80° C. for the assessment of MMP activity. The cell number was determined by direct cell counting.
MMP activity in aortic extracts and conditioned media from monocytes was assessed, as previously described (Jacot T A, et al., Lab Invest. 1996; 75:791-79). Briefly, aortic segments were homogenized and extracted in RIPA buffer (25 mM Tris, pH 7.4, 150 mM KCl, 5 mM EDTA, 1% Nonidet P-40, 0.5% sodium deoxycholate, and 0.1% SDS). Insoluble material was precipitated by centrifugation, and soluble extracts were collected and stored at −20° C. for further analysis. For in vitro experiments, cell supernatants were centrifuged to remove cellular debris, and diluted appropriately to normalize for cell number. Aortic extracts and conditioned media were then mixed with sample buffer (1% SDS, 0.08 M Tris pH 6.8, 4% glycerol, and 0.006% bromophenol blue), and loaded onto a 10% gelatin polyacrylamide gel, and processed as described (Jacot T A, et al., Lab Invest. 1996; 75:791-79). For reverse zymography, samples were loaded onto a 15% gelatin polyacrylamide gel containing 0.5% porcine gelatin and 6 μg recombinant gelatinase A, and processed as described (Elliot S J, et al., J Am Soc Nephrol. 1999; 10: 62-68).

OO [H2O2, hydrogen peroxide]
apoptotic cell death [1]: dose dependent increase

tunicamycin
apoptotic cell death ([1]; proximal tubular cells exposed to inducers of oxidative stress or ER stress): dose dependent increase
cell death ([1]; 0.6 μg/ml of tunicamycin): 38%
cell death ([1]; 1.2 μg/ml of tunicamycin): 89%

TNFα
fold increase in mRNA expression of MCP-1, RANTES, CXCL-1, MIP-2, ICAM-1 and iNOS [2]: 2-9 fold
increase in the amount of FITC-labeled albumin that passed through a monolayer of podocytes [3]: 34%

heparin
effect of heparin treatment on MMP-2 activity compared with the PPS effect [4]: comparable

— patent publication US8871741B2, “Inhibition of TNF-α induced activation of NFKB by pentosan polysulfate” (Icahn School of Medicine at Mount Sinai, priority 2010, dated 2014)
